Laboratory results taken from patent publication US20240299385A1 (ReWind Therapeutics NV, priority 2021, published 2024).

Each compound was assayed against T1, human GPR17 receptor (Homo sapiens, UniProt Q13304) (assay: Calcium mobilization functional assay (Fluo-8, FLIPR TETRA) in HEK-293 hGPR17 (Gα-q assay)). Conditions: antagonism of MDL29,951 (~EC80) induced Ca2+ signal; cell line (HEK-293 hGPR17 or HEK-293 Suchi5 hGPR17) not given.
T1 construct: host or cells: HEK-293
Format: cell-based
Method: HEK-293 cells stably expressing the human GPR17 receptor (HEK-293 hGPR17) developed by Axxam (Bresso, Milan, Italy) were cultured at 37° C. in a humidified atmosphere of 5% CO2. Cells were grown in EMEM supplemented with FBS (10%), Penicillin/Streptomycin (1%), Ultraglutamine I (2 mM), puromycin (0.6 μg/mL), G418 (0.4 mg/mL), zeocin (50 μg/mL). This cell line was used to test the compound antagonistic activity by monitoring the Gα-q based signaling. Signaling via Gα-q leads to mobilization of calcium from internal stores. Elevated intracellular calcium levels can then be measured with calcium-sensitive fluorescent dyes (e.g., Fluo 8-No Wash Dye).
GPR17 activation leads to both an increase in intracellular calcium (via Gα-q) and a decrease in cAMP levels (via Gα-i), implicating that both of these pathways play a role for in vivo function.
Experiments were performed using the below cell lines, as described in part 1: • HEK-293 hGPR17 (used to study the compounds acting via Gα-q pathway) • HEK-293 Suchi5 hGPR17 (used to study the compounds acting via Gα-i pathway, where the Gα-i signaling is switched to a Gα-q signaling thanks to the Gα-i/q chimera Suchi5)
GPR17 activation was able to induce an endoplasmic reticulum calcium (Ca^2+) store release in cytosol which could be measured using the fluorescent Ca^2+ sensitive dye Fluo-8 No Wash Dye as readout.
HEK-293 hGPR17 and HEK-293 Suchi5 hGPR17 were seeded at a density of 15,000 cells/well into poly-D-lysine coated black 384-well plates with clear bottom in complete medium. Cells were incubated overnight at 37° C. in a humidified atmosphere of 5% CO2. Twenty-four hours after seeding, the culture medium was carefully removed manually and the cells were loaded for 60 minutes at room temperature with the Ca^2+ sensitive Fluo-8 No Wash Dye, according to manufacturer's instructions. Cells were then assayed using a fluorometric imaging plate reader (FLIPR^TETRA). Fluorescence (excitation: 470-495 nm; emission: 515-575 nm) was recorded during the experiment. […] After twenty minutes, a second injection of MDL29,951 at ˜EC80 (500 nM for HEK-293 hGPR17 and 2 nM for HEK-293 Suchi5 hGPR17) in assay buffer was performed at the FLIPR^TETRA and the signal of the emitted fluorescence was recorded for additional 2 minutes. All the compound injections and incubations were performed in duplicate. For data quality and data analysis the Screener® 16.0.6 (Genedata) software was used.

T1 sequence (Q13304 whole entry): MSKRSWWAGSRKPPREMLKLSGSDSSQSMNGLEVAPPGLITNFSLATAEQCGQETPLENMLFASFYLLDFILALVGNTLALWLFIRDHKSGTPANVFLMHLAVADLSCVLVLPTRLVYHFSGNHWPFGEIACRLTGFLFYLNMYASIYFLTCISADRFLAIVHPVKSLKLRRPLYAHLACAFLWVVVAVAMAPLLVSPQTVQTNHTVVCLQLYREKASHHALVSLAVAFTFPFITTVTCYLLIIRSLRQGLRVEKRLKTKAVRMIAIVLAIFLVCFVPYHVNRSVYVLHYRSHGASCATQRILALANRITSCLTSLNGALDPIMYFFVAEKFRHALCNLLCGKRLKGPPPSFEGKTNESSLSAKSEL

Question: How did the IC50 turn out when N#Cc1cc(F)c(NS(=O)(=O)c2c[nH]c(-c3ccccc3)c2F)cc1F [Cpd 076, N-(4-cyano-2,5-difluoro-phenyl)-4-fluoro-5-phenyl-1H-pyrrole-3-sulfonamide] was run?
Answer: Its IC50 is < 500 nM.

Question: How did the IC50 turn out when N#Cc1cc(F)c(NS(=O)(=O)c2cc(-c3ccccc3)[nH]c2F)cc1F [Cpd 077, N-(4-cyano-2,5-difluoro-phenyl)-2-fluoro-5-phenyl-1H-pyrrole-3-sulfonamide] was run?
Answer: Its IC50 is 500 to 5000 nM.

Question: For Cn1nccc1-c1cc(S(=O)(=O)Nc2ccc(C#N)cc2F)c[nH]1 [Cpd 078, N-(4-cyano-2-fluoro-phenyl)-5-(2-methylpyrazol-3-yl)-1H-pyrrole-3-sulfonamide], which IC50 is on record?
Answer: The IC50 was 5000 to 50000 nM.

Question: With N#Cc1ccc(NS(=O)(=O)c2c[nH]c(-c3ccccc3C(F)(F)F)c2)c(F)c1 [Cpd 079, N-(4-cyano-2-fluoro-phenyl)-5-[2-(trifluoromethyl)phenyl]-1H-pyrrole-3-sulfonamide] as the compound, how does the IC50 read?
Answer: Its IC50 is 500 to 5000 nM.

Question: COCc1ccccc1-c1cc(S(=O)(=O)Nc2ccc(C#N)cc2F)c[nH]1 [Cpd 080, N-(4-cyano-2-fluoro-phenyl)-5-[2-(methoxymethyl)phenyl]-1H-pyrrole-3-sulfonamide] was tested. Which IC50 did it give?
Answer: The IC50 was 500 to 5000 nM.

Question: How did the IC50 turn out when Cn1ccc(-c2cc(S(=O)(=O)Nc3ccc(C#N)cc3F)c[nH]2)n1 [Cpd 081, N-(4-cyano-2-fluoro-phenyl)-5-(1-methylpyrazol-3-yl)-1H-pyrrole-3-sulfonamide] was run?
Answer: The IC50 was 500 to 5000 nM.

Question: Cc1cccc(F)c1-c1cc(S(=O)(=O)Nc2ccc(C#N)cc2F)c[nH]1 [Cpd 082, N-(4-cyano-2-fluoro-phenyl)-5-(2-fluoro-6-methyl-phenyl)-1H-pyrrole-3-sulfonamide] was tested. Which IC50 did it give?
Answer: The IC50 was < 500 nM.

Question: COc1cccc(F)c1-c1cc(S(=O)(=O)Nc2ccc(C#N)cc2F)c[nH]1 [Cpd 083, N-(4-cyano-2-fluoro-phenyl)-5-(2-fluoro-6-methoxy-phenyl)-1H-pyrrole-3-sulfonamide] was tested. Which IC50 did it give?
Answer: The IC50 was < 500 nM.

Question: Which IC50 does the source give for COc1ccc(F)c(-c2cc(S(=O)(=O)Nc3ccc(C#N)cc3F)c[nH]2)c1 [Cpd 084, N-(4-cyano-2-fluoro-phenyl)-5-(2-fluoro-5-methoxy-phenyl)-1H-pyrrole-3-sulfonamide] here?
Answer: Its IC50 is < 500 nM.

Question: For Cc1cccc(C)c1-c1cc(S(=O)(=O)Nc2ccc(C#N)cc2F)c[nH]1 [Cpd 085, N-(4-cyano-2-fluoro-phenyl)-5-(2,6-dimethylphenyl)-1H-pyrrole-3-sulfonamide], which IC50 is on record?
Answer: Its IC50 is 500 to 5000 nM.

Question: COc1ccc(-c2cc(S(=O)(=O)Nc3ccc(C#N)cc3F)c[nH]2)c(F)c1 [Cpd 086, N-(4-cyano-2-fluoro-phenyl)-5-(2-fluoro-4-methoxy-phenyl)-1H-pyrrole-3-sulfonamide] was tested. Which IC50 did it give?
Answer: The IC50 was 500 to 5000 nM.

Question: Which IC50 does the source give for COc1cccc(-c2cc(S(=O)(=O)Nc3ccc(C#N)cc3F)c[nH]2)c1F [Cpd 087, N-(4-cyano-2-fluoro-phenyl)-5-(2-fluoro-3-methoxy-phenyl)-1H-pyrrole-3-sulfonamide] here?
Answer: Its IC50 is 500 to 5000 nM.

Question: With N#Cc1ccc(NS(=O)(=O)c2c[nH]c(-c3cc(F)c(F)cc3F)c2)c(F)c1 [Cpd 088, N-(4-cyano-2-fluoro-phenyl)-5-(2,4,5-trifluorophenyl)-1H-pyrrole-3-sulfonamide] as the compound, how does the IC50 read?
Answer: The IC50 was < 500 nM.

Question: How did the IC50 turn out when COc1nccc(F)c1-c1cc(S(=O)(=O)Nc2ccc(C#N)cc2F)c[nH]1 [Cpd 089, N-(4-cyano-2-fluoro-phenyl)-5-(4-fluoro-2-methoxy-3-pyridyl)-1H-pyrrole-3-sulfonamide] was run?
Answer: The IC50 was < 500 nM.

Question: For N#Cc1ccc(NS(=O)(=O)c2c[nH]c(-c3ncccc3F)c2)c(F)c1 [Cpd 090, N-(4-cyano-2-fluorophenyl)-5-(3-fluoropyridin-2-yl)-1H-pyrrole-3-sulfonamide], which IC50 is on record?
Answer: Its IC50 is < 500 nM.

Question: N#Cc1ccc(NS(=O)(=O)c2c[nH]c(-c3c(F)cccc3F)c2)c(F)c1 [Cpd 091, N-(4-cyano-2-fluoro-phenyl)-5-(2,6-difluorophenyl)-1H-pyrrole-3-sulfonamide] was tested. Which IC50 did it give?
Answer: Its IC50 is < 500 nM.

Question: With N#Cc1ccc(NS(=O)(=O)c2c[nH]c(-c3ccccc3C(F)F)c2)c(F)c1 [Cpd 093, N-(4-cyano-2-fluoro-phenyl)-5-[2-(difluoromethyl)phenyl]-1H-pyrrole-3-sulfonamide] as the compound, how does the IC50 read?
Answer: The IC50 was 500 to 5000 nM.

Question: With N#Cc1ccc(NS(=O)(=O)c2c[nH]c(-c3ncccn3)c2)c(F)c1 [Cpd 094, N-(4-cyano-2-fluorophenyl)-5-(pyrimidin-2-yl)-1H-pyrrole-3-sulfonamide] as the compound, how does the IC50 read?
Answer: Its IC50 is 5000 to 50000 nM.

Question: For COc1cccc(OC)c1-c1cc(S(=O)(=O)Nc2ccc(C#N)cc2F)c[nH]1 [Cpd 095, N-(4-cyano-2-fluoro-phenyl)-5-(2,6-dimethoxyphenyl)-1H-pyrrole-3-sulfonamide], which IC50 is on record?
Answer: The IC50 was 500 to 5000 nM.

Question: N#Cc1ccc(NS(=O)(=O)c2c[nH]c(-c3ccc(C#N)cc3F)c2)c(F)c1 [Cpd 096, N,5-bis(4-cyano-2-fluoro-phenyl)-1H-pyrrole-3-sulfonamide] was tested. Which IC50 did it give?
Answer: Its IC50 is 500 to 5000 nM.

Question: With N#Cc1ccc(NS(=O)(=O)c2c[nH]c(-c3cc(F)cc(F)c3F)c2)c(F)c1 [Cpd 097, N-(4-cyano-2-fluoro-phenyl)-5-(2,3,5-trifluorophenyl)-1H-pyrrole-3-sulfonamide] as the compound, how does the IC50 read?
Answer: The IC50 was 500 to 5000 nM.

Question: With N#Cc1ccc(NS(=O)(=O)c2c[nH]c(C3CCC3)c2)c(F)c1 [Cpd 098, N-(4-cyano-2-fluorophenyl)-5-cyclobutyl-1H-pyrrole-3-sulfonamide] as the compound, how does the IC50 read?
Answer: The IC50 was 500 to 5000 nM.

Question: How did the IC50 turn out when O=S(=O)(Nc1ccc(C(F)(F)F)nc1)c1c[nH]c(-c2ccccc2)c1 [Cpd 099, 5-phenyl-N-[6-(trifluoromethyl)-3-pyridyl]-1H-pyrrole-3-sulfonamide] was run?
Answer: Its IC50 is 500 to 5000 nM.

Question: With Cc1ncccc1NS(=O)(=O)c1c[nH]c(-c2ccccc2)c1 [Cpd 100, N-(2-methyl-3-pyridyl)-5-phenyl-1H-pyrrole-3-sulfonamide] as the compound, how does the IC50 read?
Answer: Its IC50 is 500 to 5000 nM.

Question: With Cc1ccc(NS(=O)(=O)c2c[nH]c(-c3ccccc3)c2)c(C)n1 [Cpd 101, N-(2,6-dimethyl-3-pyridyl)-5-phenyl-1H-pyrrole-3-sulfonamide] as the compound, how does the IC50 read?
Answer: The IC50 was 500 to 5000 nM.

Question: Which IC50 does the source give for N#Cc1ccc(NS(=O)(=O)c2c[nH]c(-c3cccs3)c2)c(F)c1 [Cpd 102, N-(4-cyano-2-fluoro-phenyl)-5-(2-thienyl)-1H-pyrrole-3-sulfonamide] here?
Answer: Its IC50 is < 500 nM.

Question: Which IC50 does the source give for N#Cc1ccc(NS(=O)(=O)c2c[nH]c(-c3ccsc3)c2)c(F)c1 [Cpd 103, N-(4-cyano-2-fluoro-phenyl)-5-(3-thienyl)-1H-pyrrole-3-sulfonamide] here?
Answer: The IC50 was < 500 nM.

Question: How did the IC50 turn out when N#Cc1ccc(NS(=O)(=O)c2c[nH]c(-c3cc(F)cc(F)c3)c2)c(F)c1 [Cpd 104, N-(4-cyano-2-fluoro-phenyl)-5-(3,5-difluorophenyl)-1H-pyrrole-3-sulfonamide] was run?
Answer: Its IC50 is 500 to 5000 nM.

Question: How did the IC50 turn out when N#Cc1ccc(NS(=O)(=O)c2c[nH]c(-c3cccnc3F)c2)c(F)c1 [Cpd 105, N-(4-cyano-2-fluoro-phenyl)-5-(2-fluoro-3-pyridyl)-1H-pyrrole-3-sulfonamide] was run?
Answer: Its IC50 is 500 to 5000 nM.

Question: How did the IC50 turn out when N#Cc1ccc(NS(=O)(=O)c2c[nH]c(-c3ccccc3C#N)c2)c(F)c1 [Cpd 106, N-(4-cyano-2-fluoro-phenyl)-5-(2-cyanophenyl)-1H-pyrrole-3-sulfonamide] was run?
Answer: Its IC50 is 500 to 5000 nM.

Question: For N#Cc1ccc(NS(=O)(=O)c2c[nH]c(-c3cccc(CO)c3F)c2)c(F)c1 [Cpd 107, N-(4-cyano-2-fluoro-phenyl)-5-[2-fluoro-3-(hydroxymethyl)phenyl]-1H-pyrrole-3-sulfonamide], which IC50 is on record?
Answer: The IC50 was 500 to 5000 nM.

Question: For N#Cc1ccc(NS(=O)(=O)c2c[nH]c(-c3cc(CO)ccc3F)c2)c(F)c1 [Cpd 108, N-(4-cyano-2-fluoro-phenyl)-5-[2-fluoro-5-(hydroxymethyl)phenyl]-1H-pyrrole-3-sulfonamide], which IC50 is on record?
Answer: Its IC50 is 500 to 5000 nM.

Question: Which IC50 does the source give for O=S(=O)(Nc1cc(F)c(F)cc1F)c1c[nH]c(-c2ccc(F)cc2)c1 [Cpd 109, 5-(4-fluorophenyl)-N-(2,4,5-trifluorophenyl)-1H-pyrrole-3-sulfonamide] here?
Answer: Its IC50 is 5000 to 50000 nM.

Question: With O=S(=O)(Nc1cc(F)c(F)cc1F)c1c[nH]c(-c2cccc(F)c2)c1 [Cpd 110, 5-(3-fluorophenyl)-N-(2,4,5-trifluorophenyl)-1H-pyrrole-3-sulfonamide] as the compound, how does the IC50 read?
Answer: The IC50 was 500 to 5000 nM.

Question: How did the IC50 turn out when Cc1ccccc1-c1cc(S(=O)(=O)Nc2cc(F)c(F)cc2F)c[nH]1 [Cpd 111, 5-(o-tolyl)-N-(2,4,5-trifluorophenyl)-1H-pyrrole-3-sulfonamide] was run?
Answer: The IC50 was 500 to 5000 nM.

Question: O=S(=O)(Nc1ccc2ncccc2c1)c1c[nH]c(-c2ccccc2)c1 [Cpd 112, 5-phenyl-N-(6-quinolyl)-1H-pyrrole-3-sulfonamide] was tested. Which IC50 did it give?
Answer: The IC50 was 500 to 5000 nM.

Question: How did the IC50 turn out when O=S(=O)(Nc1cc(F)c(C(F)(F)F)cc1F)c1c[nH]c(-c2ccc(F)cc2)c1 [Cpd 113, N-[2,5-difluoro-4-(trifluoromethyl)phenyl]-5-(4-fluorophenyl)-1H-pyrrole-3-sulfonamide] was run?
Answer: The IC50 was 500 to 5000 nM.
